ChEMBL document CHEMBL1159130, “1,2,4-Triacylpiperidine substance p antagonists: Separation of affinities for the NK-1 receptor and the L-type calcium channel” (Bioorg Med Chem Lett, 1995)

How the values were obtained:
[1] = target: Substance-P receptor (Homo sapiens, UniProt P25103); test: Inhibition of [125I]-substance P binding to human neurokinin-1 (hNK-1) receptor in CHO cells; format: cell-based
[2] = Inhibition of [3H]diltiazem binding to L-type calcium channels of rabbit skeletal muscle; format: tissue-based, Oryctolagus cuniculus, Muscle tissue

Chain of Substance-P receptor (P25103 whole entry): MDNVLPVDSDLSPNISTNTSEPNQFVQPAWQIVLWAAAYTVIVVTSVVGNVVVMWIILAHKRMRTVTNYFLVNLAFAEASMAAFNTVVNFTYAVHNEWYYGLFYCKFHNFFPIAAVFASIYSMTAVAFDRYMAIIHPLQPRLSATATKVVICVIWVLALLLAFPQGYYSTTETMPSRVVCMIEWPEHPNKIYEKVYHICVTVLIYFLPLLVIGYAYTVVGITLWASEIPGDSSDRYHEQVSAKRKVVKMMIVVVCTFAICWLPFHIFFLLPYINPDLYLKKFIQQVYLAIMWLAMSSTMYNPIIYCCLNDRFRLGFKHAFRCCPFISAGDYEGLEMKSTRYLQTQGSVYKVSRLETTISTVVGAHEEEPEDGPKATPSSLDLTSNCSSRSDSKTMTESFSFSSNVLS

| IC50 [1] [nM] | IC50 [2] [nM] | SMILES |
| --- | --- | --- |
| 1.8 | > 5000 | CCCCCN(CCCCC)C(=O)[C@H]1CCN(C(=O)N(c2ccccc2)c2cccc(Cl)c2)[C@H](C(=O)NCCN(CC(N)=O)C(=O)OCc2ccccc2)C1 |
| 13 | 2700 | CCCCCN(CCCCC)C(=O)[C@H]1CCN(C(=O)N(c2ccccc2)c2ccccc2)[C@H](C(=O)NCCNCC(N)=O)C1 |
| 5.5 | 820 | CCCCCN(CCCCC)C(=O)[C@H]1CCN(C(=O)N(c2ccccc2)c2ccccc2)[C@H](C(=O)NCCCN(CC)CC)C1 |
| 1.4 | 210 | CCCCCN(CCCCC)C(=O)[C@H]1CCN(C(=O)N(c2ccccc2)c2cccc(Cl)c2)[C@H](C(=O)NCCN(C)Cc2ccccc2OC)C1 |
| 0.7 | 110 | COc1ccccc1CN(C)CCNC(=O)[C@@H]1C[C@@H](C(=O)N(Cc2ccccc2)Cc2ccccc2)CCN1C(=O)N(c1ccccc1)c1cccc(Cl)c1 |
| 20 | > 5000 | CCCCCN(CCCCC)C(=O)[C@H]1CCN(C(=O)N(c2ccccc2)c2cccc(Cl)c2)[C@H](C(=O)O)C1 |
| 33 | > 5000 | CCCCCN(CCCCC)C(=O)[C@H]1CCN(C(=O)N(c2ccccc2)c2ccccc2)[C@H](C(=O)O)C1 |
| 250 | 470 | COC(=O)[C@H]1CCN(C(=O)N(c2ccccc2)c2ccccc2)[C@H](C(=O)NCCN(C)Cc2ccccc2OC)C1 |
| 3.5 | 3700 | CCCCCN(CCCCC)C(=O)[C@H]1CCN(C(=O)N(c2ccccc2)c2cccc(Cl)c2)[C@H](C(=O)NCCNCC(N)=O)C1 |
| 8 | – | CCCCCN(CCCCC)C(=O)N1CCN(C(=O)N(c2ccccc2)c2cccc(Cl)c2)[C@H](C(=O)NCCCN(CC)CC)C1 |
| 1.8 | 5600 | CCCCCN(CCCCC)C(=O)[C@H]1CCN(C(=O)N(c2ccccc2)c2ccccc2)[C@H](C(=O)NCCN(CC(N)=O)Cc2ccccc2OC)C1 |
| 73 | – | CCCCCN(CCCCC)C(=O)[C@@H]1CCN(C(=O)N(c2ccccc2)c2ccccc2)[C@H](C(=O)NCCN(C)Cc2ccccc2OC)C1 |
| 3.8 | 16200 | CCCCCN(CCCCC)C(=O)[C@H]1CCN(C(=O)N(c2ccccc2)c2cccc(Cl)c2)[C@H](C(=O)NCCN(CC(N)=O)Cc2ccccc2OC)C1 |
| 1.8 | 200 | CCCCCN(CCCCC)C(=O)[C@H]1CCN(C(=O)N(c2ccccc2)c2ccccc2)[C@H](C(=O)NCCN(C)Cc2ccccc2OC)C1 |

| SMILES | IC50 [1] [nM] | IC50 [2] [nM] |
| --- | --- | --- |
| COc1ccccc1CN[C@H]1C2CCN(CC2)[C@H]1C(c1ccccc1)c1ccccc1 [CP-96345] | – | 240 |
